# According to US20170197985A1, “SODIUM (2R,5S,13AR)-7,9-DIOXO-10-((2,4,6-TRIFLUOROBENZYL)CARBAMOYL)-2,3,4,5,7,9,13,13A-OCTAHYDRO-2,5-METHANOPYRIDO[1',2':4,5]PYRAZINO[2,1-B][1,3]OXAZEPIN-8-OLATE” (Gilead Sciences, Inc., priority 2014, published 2017):
# Columns and labels:
# [1] = Bioavailability after a single oral tablet in beagle dogs (plasma LC/MS/MS, non-compartmental PK); format: in vivo; details: dog, male beagle dogs, fasted, pentagastrin pre-treated, single 25 mg strength tablet (dry granulation, 30% active); for bioavailability: read-out: % F (oral bioavailability)
# Excerpt: The bioavailability of sodium (2R,5S,13aR)-7,9-dioxo-10-((2,4,6-trifluorobenzyl)carbamoyl)-2,3,4,5,7,9,13,13a-octahydro-2,5-methanopyrido[1′,2′:4,5]pyrazino[2,1-b][1,3]oxazepin-8-olate (Formula II) Form I was compared to the bioavailability of (2R,5S,13aR)-8-hydroxy-7,9-dioxo-N-(2,4,6-trifluorobenzyl)-2,3,4,5,7,9,13,13a-octahydro-2,5-methanopyrido[1′,2′:4,5]pyrazino[2,1-b][1,3]oxazepine-10-carboxamide (Formula I) Form III.
# Each dosing group consisted of 6 male, non-naïve purebred beagle dogs. At dosing, the animals weighed between 10 to 13 kg. The animals were fasted overnight prior to dose administration and up to 4 hr after dosing. Each subject was pre-treated with pentagastrin (6 μg/kg) and dosed 30 minutes later with a single 25 mg strength tablet of Formula II Form I or Formula I Form III. Each subject was given 10 mL of water to aid in swallowing.
# Serial venous blood samples (approximately 1 mL each) were taken from each animal at 0, 0.250, 0.483, 0.583, 0.750, 1.00, 1.50, 2.00, 4.00, 8.00, 12.0, and 24.0 hours after dosing. The blood samples were collected into Vacutainer™ tubes containing EDTA-K2 as the anti-coagulant and were immediately placed on wet ice pending centrifugation for plasma. An LC/MS/MS method was used to measure the concentration of the test compound in plasma. An aliquot of 100 μL of each plasma sample was added to a clean 96 well plate, and 400 μL of cold acetonitrile/internal standard solution (ACN)/(ISTD) was added. After protein precipitation, an aliquot of 110 μL of the supernatant was transferred to a clean 96-well plate and diluted with 300 μL of water. An aliquot of 25 μL of the above solution was injected into a TSQ Quantum Ultra LC/MS/MS system utilizing a Hypersil Gold C18 HPLC column (50×3.0 mm, 5 μm; Thermo-Hypersil Part #25105-053030). An Agilent 1200 series binary pump (P/N G1312A Bin Pump) was used for elution and separation, and an HTS Pal autosampler (LEAP Technologies, Carrboro, N.C.) was used for sample injection. A TSQ Quantum Ultra triple quadrupole mass spectrometer was utilized in selective reaction monitoring mode (Thermo Finnigan, San Jose, Calif.). Liquid chromatography was performed using two mobile phases: mobile phase A contained 1% acetonitrile in 2.5 mM ammonium formate aqueous solution with pH of 3.0, and mobile phase B contained 90% acetonitrile in 10 mM ammonium formate with pH of 4.6. Non-compartmental pharmacokinetic analysis was performed on the plasma concentration-time data. The resulting data are shown in Table 3: F (%) refers to oral bioavailability; AUC refers to area under the curve and is a measure of total plasma exposure of the indicated compound; Cmax refers to the peak plasma concentration of the compound after administration.
# [2] = system: HIV; details: as discussed in co-pending U.S. Ser. No. 14/133,855 and PCT US2013/076367; cited from earlier work
# [3] = Stability on storage under accelerated conditions (% AN, % LS); format: physicochemical
# Method: The stability of sodium (2R,5S,13aR)-7,9-dioxo-10-((2,4,6-trifluorobenzyl)carbamoyl)-2,3,4,5,7,9,13,13a-octahydro-2,5-methanopyrido[1′,2′:4,5]pyrazino[2,1-b][1,3]oxazepin-8-olate Form I was tested. […] In Table 5, AN refers to area normalization and is the relative peak area of the active with respect to other impurities and components contained in the sample. LS refers to labile strength and is the amount of active present relative to the theoretical amount.
compound,measurement,setting,value
"O=C(NCc1c(F)cc(F)cc1F)c1cn2c(c(O)c1=O)C(=O)N1[C@H]3CC[C@H](C3)O[C@@H]1C2 [Formula I Form III, (2R,5S,13aR)-8-hydroxy-7,9-dioxo-N-(2,4,6-trifluorobenzyl)-2,3,4,5,7,9,13,13a-octahydro-2,5-methanopyrido[1′,2′:4,5]pyrazino[2,1-b][1,3]oxazepine-10-carboxamide]",AUC(0-t),[1],27 ± 13 µM·h
same,Cmax,[1],6 ± 2 µM
same,bioavailability,[1],10 ± 6%
"O=C(NCc1c(F)cc(F)cc1F)c1cn2c(c(O)c1=O)C(=O)N1[C@H]3CC[C@H](C3)O[C@@H]1C2 [Formula I, (2R,5S,13aR)-8-hydroxy-7,9-dioxo-N-(2,4,6-trifluorobenzyl)-2,3,4,5,7,9,13,13a-octahydro-2,5-methanopyrido[1′,2′:4,5]pyrazino[2,1-b][1,3]oxazepine-10-carboxamide]",anti-viral activity (in words),[2],demonstrates anti-viral activity
"O=C(NCc1c(F)cc(F)cc1F)c1cn2c(c([O-])c1=O)C(=O)N1[C@H]3CC[C@H](C3)O[C@@H]1C2.[Na+] [Formula II Form I, sodium (2R,5S,13aR)-7,9-dioxo-10-((2,4,6-trifluorobenzyl)carbamoyl)-2,3,4,5,7,9,13,13a-octahydro-2,5-methanopyrido[1′,2′:4,5]pyrazino[2,1-b][1,3]oxazepin-8-olate]",AUC(0-t),[1],71 ± 16 µM·h
same,Cmax,[1],13 ± 1 µM
same,bioavailability,[1],28 ± 7%
same,% AN (area normalization),"[3]; 25° C./60% RH (open), 1 week",95.0 ± 0.2%
same,% LS (labile strength),"[3]; 25° C./60% RH (open), 1 week",104.8 ± 0.1%
same,% AN (area normalization),"[3]; 25° C./60% RH (open), 2 weeks",94.4 ± 0.1%
same,% LS (labile strength),"[3]; 25° C./60% RH (open), 2 weeks",101.6 ± 0.1%
same,% AN (area normalization),"[3]; 25° C./60% RH (open), 4 weeks",94.4 ± 0.0%
same,% LS (labile strength),"[3]; 25° C./60% RH (open), 4 weeks",103.0 ± 0.8%
same,% AN (area normalization),"[3]; 40° C. (closed), 1 week",95.2 ± 0.3%
same,% LS (labile strength),"[3]; 40° C. (closed), 1 week",108.0 ± 0.2%
same,% AN (area normalization),"[3]; 40° C. (closed), 2 weeks",94.4 ± 0.1%
same,% LS (labile strength),"[3]; 40° C. (closed), 2 weeks",102.4 ± 0.1%
same,% AN (area normalization),"[3]; 40° C. (closed), 4 weeks",94.4 ± 0.0%
same,% LS (labile strength),"[3]; 40° C. (closed), 4 weeks",97.0 ± 0.0%
same,% AN (area normalization),"[3]; 40° C./75% RH (open), 1 week",94.9 ± 0.1%
same,% LS (labile strength),"[3]; 40° C./75% RH (open), 1 week",103.3 ± 6.9%
same,% AN (area normalization),"[3]; 40° C./75% RH (open), 2 weeks",94.4 ± 0.0%
same,% LS (labile strength),"[3]; 40° C./75% RH (open), 2 weeks",108.5 ± 0.4%
same,% AN (area normalization),"[3]; 40° C./75% RH (open), 4 weeks",94.4 ± 0.0%
same,% LS (labile strength),"[3]; 40° C./75% RH (open), 4 weeks",102.9 ± 0.1%
same,% AN (area normalization),"[3]; Starting material, 0 weeks",94.4 ± 0.1%
same,% LS (labile strength),"[3]; Starting material, 0 weeks",99.8 ± 0.1%
same,Stability (in words),[3]; after four weeks of storage under accelerated conditions,stable
